Drawing on US20180179524A1, “COMPOSITIONS AND METHODS FOR INHIBITING CELL PROLIFERATION” (President and Fellows of Harvard College, priority 2015, published 2018), this text covers Mean efficiency for 40 substances.

The test system of the data set is luciferase-based reporter constructs in S2R+ cells. Put plainly: Luciferase-based mutation reporter assay (sgRNA mutation efficiency). It counts as cell-based, Drosophila. The note with it: sgRNAs with no mismatches targeting luciferase-based reporter in S2R+ cells; mutation rate = 1/Firefly luciferase normalized to Renilla. On the procedure:
The luciferase reporter vector was constructed by PCR amplifying the metallothionein promoter from pMK33 and luciferase gene from pGL3 (Table 1) and combining these with annealed oligos containing a gRNA target site (Table 1 and Table 2) and a custom made cloning vector using Golden Gate assembly.
Luciferase assays were performed by transfecting S2R+ cells with the relevant pl018 plasmid, luciferase reporter and pRL-TK (Promega) (to allow normalization of transfection efficiencies between samples) in 96 well plates using Effectene Transfection Reagent (Qiagen) according to the manufacturer's recommendations. Twenty-four hours after transfection, CuSO4 was added to the cell media at a final concentration of 140 μM and cells were incubated for a further 16 hours.
Firefly and Renilla luciferase readings were taken using the Dual-Glo Luciferase Assay System (Promega) according to manufacturer's instructions and a SpectraMax Paradigm Multi-Mode Microplate Detection Platform (Molecular Devices).
Because the rate of mutations varies widely between different sgRNAs (25-27), whether efficiency could be predicted based on the sgRNA sequence was tested. 75 additional sgRNAs were generated, each targeting luciferase-based reporter constructs with no mismatches and tested mutation efficiency for each. Using this panel of sgRNAs and associated efficiencies, the presence or absence of a correlation between GC content and mutation rate was examined. […] Next, whether a more general sequence-based approach was tested for its ability to improve efficiency prediction. The nucleotide content of all 75 sgRNAs was examined, considering each position separately and generated a probability matrix linking nucleotide content with mutation rate (FIG. 1, panel B). This was then used to generate predicted efficiency scores based on sgRNA sequence. […] Note that sgRNAs targeting close to the 3′ end of genes or with apparent viability effects were not included in this analysis. Finally, predicted scores were generated for all sgRNA target sites in the Drosophila genome and annotated.
For orientation: A reporter such as luciferase makes a cellular process visible.
In turn, “AAACAGAAGGTCTTCCCCAA: sgRNA targeting a luciferase-based reporter construct, no mismatches (chemistry not given here)” gave a Mean efficiency of 0.3046.
Next, “AAAGAGCTGCGGGCCGGGCG: sgRNA targeting a luciferase-based reporter construct, no mismatches (chemistry not given here)”: 0.06954; “AACGACATCACGGTCCATGC: sgRNA targeting a luciferase-based reporter construct, no mismatches (chemistry not given here)”: 0.2424; “AACTCAAAGACCCGCTTTCG: sgRNA targeting a luciferase-based reporter construct, no mismatches (chemistry not given here)”: 0.1408.
Substance “AAGATAAGTTCTCTCCTATT: sgRNA targeting a luciferase-based reporter construct, no mismatches (chemistry not given here)” registered a Mean efficiency of 0.04594.
With “AAGTAGGCTCTCCTGAATGG: sgRNA targeting a luciferase-based reporter construct, no mismatches (chemistry not given here)”, the Mean efficiency was 0.1224.
The same measure for “ACCAGCATATGCCGGCCTGC: sgRNA targeting a luciferase-based reporter construct, no mismatches (chemistry not given here)”: 0.767.
“ACCCTGTCCACTCATATATG: sgRNA targeting a luciferase-based reporter construct, no mismatches (chemistry not given here)” yielded a Mean efficiency of 0.4172.
With “ACCGAAAGTCGCGCCGGACG: sgRNA targeting a luciferase-based reporter construct, no mismatches (chemistry not given here)”, the Mean efficiency was 0.2496.
Next, “ACCGCCAAACGGACCGCTTA: sgRNA targeting a luciferase-based reporter construct, no mismatches (chemistry not given here)”: 0.3105.
As to “ACGCGCACGGGTCTCACGCC: sgRNA targeting a luciferase-based reporter construct, no mismatches (chemistry not given here)”, the Mean efficiency is recorded as 0.3288.
Next, “AGACTGGTTTCCACCCGCTC: sgRNA targeting a luciferase-based reporter construct, no mismatches (chemistry not given here)”: 1.298; “AGGGAGTCCGCATAGGCGGC: sgRNA targeting a luciferase-based reporter construct, no mismatches (chemistry not given here)”: 0.1819.
In turn, “AGTCCTCACCGTGGGGCACC: sgRNA targeting a luciferase-based reporter construct, no mismatches (chemistry not given here)” displayed a Mean efficiency of 0.09069.
Next, “ATAGTTCCCTCCATGCCCTT: sgRNA targeting a luciferase-based reporter construct, no mismatches (chemistry not given here)”: 0.07786; “ATATCGGAGTCGGCCCAACC: sgRNA targeting a luciferase-based reporter construct, no mismatches (chemistry not given here)”: 0.4113.
In the case of “ATCTGACCTCCCGGCTAATT: sgRNA targeting a luciferase-based reporter construct, no mismatches (chemistry not given here)”, the Mean efficiency was found to be 0.05737.
Next, “ATCTGGTCAGGACGCAAAGC: sgRNA targeting a luciferase-based reporter construct, no mismatches (chemistry not given here)”: 0.1406; “ATCTTCCCGTCGACATAGCC: sgRNA targeting a luciferase-based reporter construct, no mismatches (chemistry not given here)”: 0.1609; “CAACCAACAGGTCCGGCCCC: sgRNA targeting a luciferase-based reporter construct, no mismatches (chemistry not given here)”: 0.3833.
Next, “CAAGCAAGTCCGGTCGGTTG: sgRNA targeting a luciferase-based reporter construct, no mismatches (chemistry not given here)”: 0.3531; “CAGCCTCTCCCTGCGGATGC: sgRNA targeting a luciferase-based reporter construct, no mismatches (chemistry not given here)”: 0.2509.
The same measure for “CAGGCATTGTGACGACGCGC: sgRNA targeting a luciferase-based reporter construct, no mismatches (chemistry not given here)”: 0.1744; for “CCACCGCGATATATGGGCGA: sgRNA targeting a luciferase-based reporter construct, no mismatches (chemistry not given here)”: 0.5711.
As to “CCAGTAACGTCAAAGCTAGG: sgRNA targeting a luciferase-based reporter construct, no mismatches (chemistry not given here)”, the Mean efficiency is given as 0.1068.
Next, “CCGCCGTGTGCTGCGAATAC: sgRNA targeting a luciferase-based reporter construct, no mismatches (chemistry not given here)”: 0.1661; “CCGCGCCGAGGACTACCGCC: sgRNA targeting a luciferase-based reporter construct, no mismatches (chemistry not given here)”: 0.4568.
Next, “CCGTCGAAGAACCGCGCAAT: sgRNA targeting a luciferase-based reporter construct, no mismatches (chemistry not given here)”: 1.029; “CCTGGATGATACGCTGGCGC: sgRNA targeting a luciferase-based reporter construct, no mismatches (chemistry not given here)”: 0.1807.
The same measure for “CCTTCGCGAGCACCCGGAAA: sgRNA targeting a luciferase-based reporter construct, no mismatches (chemistry not given here)”: 0.3812.
Take “CGAATTACTACGTAGAGCGG: sgRNA targeting a luciferase-based reporter construct, no mismatches (chemistry not given here)”: the Mean efficiency stood at 0.1117.
The same measure for “CGACGTTCCTGGCTCAATTG: sgRNA targeting a luciferase-based reporter construct, no mismatches (chemistry not given here)”: 0.9067; for “CGCCGGCACCGCGTCCCTAT: sgRNA targeting a luciferase-based reporter construct, no mismatches (chemistry not given here)”: 0.2542.
The same measure for “CGTCGTTCTCGCCACCGCGC: sgRNA targeting a luciferase-based reporter construct, no mismatches (chemistry not given here)”: 0.1461.
The same measure for “CTCACAGACGGCGCCCGGCG: sgRNA targeting a luciferase-based reporter construct, no mismatches (chemistry not given here)”: 0.4741.
Turning to “CTGCCGTTCTTCAGAAATAT: sgRNA targeting a luciferase-based reporter construct, no mismatches (chemistry not given here)”, the Mean efficiency was 0.3101.
Next, “CTGGGCCGGCGTGTCCGTTC: sgRNA targeting a luciferase-based reporter construct, no mismatches (chemistry not given here)”: 0.4328; “CTTCCGACCCTTCGTTAGCC: sgRNA targeting a luciferase-based reporter construct, no mismatches (chemistry not given here)”: 0.1815.
The same measure for “GAACTCCGACTAGATTATAT: sgRNA targeting a luciferase-based reporter construct, no mismatches (chemistry not given here)”: 0.4012; for “GACAAAGGATACTCAAATCC: sgRNA targeting a luciferase-based reporter construct, no mismatches (chemistry not given here)”: 0.05169.
